Laboratory results: US20170029531A1, “INHIBITION OF LACTATE DEHYDROGENASE 5 (LDH-5) BINDING, INCORPORATION, INTERNALIZATION AND/OR ENDOCYTOSIS TO IMMUNE CELLS” (Seattle Children's Hospital (dba Seattle Children's …, priority 2014, published 2017)

Legend:
[1] = test system: Tumor cells; experiment: LDH-5 internalization by tumor cells, flow cytometry (FIGS. 16-19); format: cell-based; conditions: FIG. 16
Experimental: FIG. 17. Tumor cells internalize LDH-5, which can be reduced by antibody blocking. 10 ug/ml of LDH5 specific monoclonal antibody was added to cells 1 hour prior to culture with LDH5 as described above and evaluated for internalization using flow cytometry to evaluate fluorescence.
FIG. 19. LDH-5 internalization is receptor mediated and Clathrin dependent. LDH5 internalization is reduced with receptor mediated endocytosis inhibitors.
LDH5 internalization is reduced with receptor mediated endocytosis inhibitors. This supports that internalization is mediated by a specific receptor, as opposite to bulk phagocytosis.

[2] = test system: monocytes from healthy donors; experiment: NKG2D ligand (MICA, MICB, ULBP-1) mRNA induction in monocytes from healthy donors (MHD), qPCR; format: cell-based, human
Description: FIG. 2. Biochemical purification of tumor-derived Lactate Dehydrogenase, expression in glioma cell lines and verification of LDH-mediated induction of NKG2D ligands on monocytes. (Panel A) Protein purification strategy. […] of U87 glioblastoma cell line supernatant were subjected to ammonium sulfate precipitation. Active fractions were passed over a phenyl Sepharose column and active fractions were then subjected to size exclusion (Superdex 200), followed by ion exchange (MonoS) before Mass Spectroscopy (MS) analysis. (Panel B) Following separation by chromatography, fractions were dialyzed into PBS and cultured with MHD (healthy monocytes) for 18 hours. Whole cell mRNA was reverse transcribed, and induction of MICB and ULBP-1 was analyzed relative to media alone controls. Western blot analysis using a monoclonal antibody to LDH-5 (ab101562) was performed on […] of total protein to confirm the presence of LDH-5 in the active fractions. (Panel C) mRNA isolated from PBMC of healthy donors, 293T cells (as negative controls), and U87, U251, and SF767 glioma cell lines were analyzed for expression of LDHA and LDHB by qPCR. (Panel D) A 1:10 dilution of fresh, unfrozen glioblastoma cell line supernatants was analyzed for total LDH enzymatic activity and expressed as OD 495 nm. (Panel E) Validation of LDH induction of NKG2D ligands in monocytes. Six hundred twenty five U/L of purified, native LDH-5, fresh U87 supernatant, or fresh U87 supernatant in the presence of 100 mM sodium oxamate (NaOx) were cultured with MHD. Eighteen hours later, mRNA was isolated and analyzed for MICA, MICB, and ULBP-1 by qPCR. Values represent induction relative to MHD cultured in media alone. (Panel F) Fresh U87 supernatant, 625 U/L of purified, native LDH-5, LDH-5+0.5 mM Pyruvate (Pyr), or LDH-5+0.5 mM pyruvate and 100 mM NaOx were cultured with MHD. Eighteen hours later, mRNA was isolated and analyzed for MICA, MICB and ULBP-1 by qPCR. Values represent induction relative to MHD cultured in media alone. (Panel G) MHD were cultured with native LDH-5 isolated from liver cells. Eighteen hours later, MICB (black bars) and ULBP-1 (gray bars) were measured by qPCR. (Panel H) Expression of NKG2D and NKp46 on primary human NK cells following a 12 hour incubation with LDH (50 ug/mL) or lactate (20 mM). Cells were surface stained with antibodies directed against CD3, CD56, NKG2D, and NKp46 and analyzed by flow cytometry. The expression level of NKG2D and NKp46 are plotted against CD56. (Panel I) Expression of CD107a on primary human NK cells following IL-2 (1000 U/ml) activation and a 6 hour incubation with LDH (50 ug/mL) or lactate (20 mM). Cells were surface stained with antibodies directed against CD3, CD56, and CD107a and analyzed by flow cytometry. Representative data are shown in the top panels, a summary of percent CD107a+NK cells is shown below. (Panel J) 293T cells were transiently transfected with a pcDNA3.1 (−) vector encoding either LDHA or LDHB, or both constructs. Supernatant was then cultured with CD14-positively selected MHD. Eighteen hours later, MICB and ULBP-1 were measured by qPCR. Values represent induction relative to monocytes cultured in media alone. *P<0.05, **P<0.01.
FIG. 21. Purified native LDH5 or LDH1 was cultured with monocytes from healthy donors. Eighteen hours later, MICB and ULBP-1 were measured by qPCR. Values represent induction relative to monocytes cultured in medium alone. […]

[3] = test system: T cells and NK cells; experiment: Internalization of LDH-A488 by T cells and NK cells of human PBMC; format: cell-based; conditions: 10 ug/mL LDH-A488, 30 min, 37° C., IL-2 cultured PBMC
Experimental: FIG. 33. Human PBMC were isolated from healthy human blood via Ficoll gradient. PBMC were cultured for 24 h in RPMI+10% FBS supplemented with 1000 U/mL IL-2. Experimental wells were pulsed with 10 ug/mL LDH-A488 for 30 min (control wells received no LDH) at 37° C. Cells were treated for 2 min with 0.5M acetic acid+150 mM NaCl (pH 2.5), followed by 4 subsequent washes in RPMI+10% FBS. Cells were stained with antibodies directed against CD4, CD8, CD28, and CD95 to delineate T cell subsets (CD28+CD95−, Naïve, Na; CD28+CD95+, central memory, CM; CD28−CD95+, effector memory, EM) or against CD3, CD56, and CD16 to delineate NK cell subsets (CD3-CD56hiCD16−; CD3−CD56dimCD16−; CD3−CD56dimCD16+). Frequency and MFI of A488 was corrected against control (no LDH pulse). Shown are 10 data points: 2 patients on 2 different days (in duplicate), and 1 patient on one day in duplicate.
Human PBMC were isolated from healthy human blood via Ficoll gradient. PBMC were cultured for 24 h in RPMI+10% FBS supplemented with 1000 U/mL IL-2. Experimental wells were pulsed with 10 ug/mL LDH-A488 for 30 min (control wells received no LDH) at 37° C. Cells were treated for 2 min with 0.5M acetic acid+150 mM NaCl (pH 2.5), followed by 4 subsequent washes in RPMI+10% FBS. […]

[4] = 156 U/L enzymatically active LDH5 from human liver, monocytes

LDH5: purified native lactate dehydrogenase isoenzyme 5, alpha only tetramer; fluorescently labeled in uptake tests
Internalization of LDH-5 by tumor cells [1]: internalize
MICB gene expression compared with medium alone [2, 4]: 7.85 fold induction
ULBP-1 gene expression compared with medium alone [2, 4]: 13.26 fold induction
Lowest concentration of purified native LDH5 that induced transcription of MICB and ULBP-1 ([2]; monocytes from healthy donors, 18 h, qPCR, FIG. 2 panel G): 156 U/L
LDH5 concentration that induced a maximal increase in NKG2D ligand transcription ([2]; monocytes, concentrations above this induced less transcription): 625 U/L
Internalization of LDH5 by T cells and NK cells [3]: internalize
